US20250127863A1, “ANTIMICROBIAL PEPTIDE FOR ONYCHOMYCOSIS” (CBMR SCIENTIFIC NANOSCIENCE B.V., priority 2019, published 2025)
No end group written: not given here.

Assays:
Test in all cases: MIC90 growth inhibition
Assay type in all cases: cell-based
Aspergillus spp = conditions: RPMI 1640 one-fourth strength
Description: (§1) The minimum inhibitory concentration (MIC) value is defined as the lowest sample concentration that inhibited growth. In the Examples, the MIC90 value is presented, which MIC90 values are determined according to established methods known to the person with the skills in the relevant art. Experiments; 1×10E5 CFU of various strains/ml were incubated for 24-48 h at 37° C. in 4× diluted medium of RPMI 1640 with the indicated concentrations of antimicrobial peptide hLF(1-11) [SEQ ID NO: 3]. As controls various strains cells were incubated for 24-48 h at 37° C. with no agent (antimicrobial peptide), and subsequently, growth of the microbial organism (e.g. yeast, bacterium) was monitored by using spectrophotometry with a spectrophotometer at 620 nm. […] ND=Not done. Representative single assay data are listed rather than a range, for clarity reasons and for ease of comparison of peptide efficacy. The MIC was calculated as the lowest antibiotic (antimicrobial peptide) concentration at which growth of the assessed yeast or bacterium (microbe) was inhibited (inhibitory concentration IC90).

Aspergillus sydowii = conditions: RPMI 1640 one-fourth strength
Description: as §1

Cladosporium spp = conditions: RPMI 1640 one-fourth strength
Description: as §1

Cladosporium trichoides = conditions: RPMI 1640 one-fourth strength
Description: as §1

Cryptococcus albidus = conditions: RPMI 1640 one-fourth strength
Description: as §1

Cryptococcus curvatus = conditions: RPMI 1640 one-fourth strength
Description: as §1

[1] = test system: Cryptococcus neoformans ▴ SKN7 (UMC); conditions: genetically modified type species, RPMI 1640 one-fourth strength
Description: as §1

Cryptococcus neoformans = conditions: RPMI 1640 one-fourth strength
Description: as §1

Enterococcus faecalis = conditions: RPMI 1640 one-fourth strength
Description: as §1

Epidermophyton floccosum = conditions: RPMI 1640 one-fourth strength
Description: as §1

Escherichia coli = conditions: RPMI 1640 one-fourth strength
Description: as §1

Exophiala dermatitidis = conditions: RPMI 1640 one-fourth strength
Description: as §1

Fusarium moniliforme = conditions: RPMI 1640 one-fourth strength
Description: as §1

Fusarium oxysporum = conditions: RPMI 1640 one-fourth strength
Description: as §1

Fusarium solani = conditions: RPMI 1640 one-fourth strength
Description: as §1

Geotrichium spp = conditions: RPMI 1640 one-fourth strength
Description: as §1

[2] = test system: M. guilliermondii CBS-2030 (Perugia); conditions: RPMI 1640 one-fourth strength
Description: as §1

[3] = test system: Malassezia furfur CBS 14141; conditions: RPMI 1640 one-fourth strength
Description: as §1

[4] = test system: Malassezia furfur CBS 7019; conditions: RPMI 1640 one-fourth strength
Description: as §1

[5] = test system: Malassezia furfur CBS 9595; conditions: RPMI 1640 one-fourth strength
Description: as §1

[6] = test system: Malassezia furfur CBS-7982; conditions: RPMI 1640 one-fourth strength
Description: as §1

Malassezia furfur spp. = conditions: RPMI 1640 one-fourth strength
Description: as §1

Malassezia globosa = conditions: RPMI 1640 one-fourth strength
Description: as §1

[7] = test system: Malassezia pachydermatis CBS-1879; conditions: RPMI 1640 one-fourth strength
Description: as §1

Meyerozyma spp. = conditions: RPMI 1640 one-fourth strength
Description: as §1

Nannizzia incurvata = conditions: RPMI 1640 one-fourth strength
Description: as §1

Nannizzia otae = conditions: RPMI 1640 one-fourth strength
Description: as §1

Penicillium digitatum = conditions: RPMI 1640 one-fourth strength
Description: as §1

[8] = test system: Penicillium spp. such as aff. Carbonarius; conditions: RPMI 1640 one-fourth strength
Description: as §1

Penicillium spp = conditions: RPMI 1640 one-fourth strength
Description: as §1

[9] = test system: Saccharomyces cerevisiae spp; conditions: RPMI 1640 one-fourth strength
Description: as §1

[10] = test system: Saccharomyces cerivisiae ATCC 2601; conditions: RPMI 1640 one-fourth strength
Description: as §1

Sporothrix schenckii = conditions: RPMI 1640 one-fourth strength
Description: as §1

Sporotrichium spp = conditions: RPMI 1640 one-fourth strength
Description: as §1

[11] = test system: Staphylococcus aureus (MRSA); conditions: RPMI 1640 one-fourth strength
Description: as §1

[12] = test system: Staphylococcus aureus 29213; conditions: RPMI 1640 one-fourth strength
Description: as §1

Streptococcus mutans = conditions: RPMI 1640 one-fourth strength
Description: as §1

[13] = test system: Streptocococcus mitis 032; conditions: RPMI 1640 one-fourth strength
Description: as §1

Torula spp = conditions: RPMI 1640 one-fourth strength
Description: as §1

[14] = test system: Trichophyton mentagrophytes; conditions: RPMI 1640 one-fourth strength
Description: as §1

Trichophyton mucoides = conditions: RPMI 1640 one-fourth strength
Description: as §1

Trichophyton spp = Trichophyton spp (Table 1); RPMI 1640 one-fourth strength
Description: as §1

Trichosporon cutaneum = conditions: RPMI 1640 one-fourth strength
Description: as §1

[15] = test system: Zygosaccharomyces bisprous; conditions: RPMI 1640 one-fourth strength
Description: as §1

## GRRRRSVQWCA [hLF1-11, Gly Arg Arg Arg Arg Ser Val Gln Trp Cys Ala]
Aspergillus spp
  Inhibitory concentration MIC (MIC90): MIC = 2.5-12.5 μg/ml
Aspergillus sydowii
  Inhibitory concentration MIC (MIC90): MIC = 2.5-12.5 μg/ml
Cladosporium spp
  Inhibitory concentration MIC (MIC90): MIC = 3.1-12.5 μg/ml
Cladosporium trichoides
  Inhibitory concentration MIC (MIC90): MIC = 5 μg/ml
Cryptococcus albidus
  Inhibitory concentration MIC (MIC90): MIC = 25 μg/ml
Cryptococcus curvatus
  Inhibitory concentration MIC (MIC90): MIC = 9 μg/ml
[1]
  Inhibitory concentration MIC (MIC90): MIC = 6.3 μg/ml
Cryptococcus neoformans
  Inhibitory concentration MIC (MIC90): MIC = 12.5-50 μg/mL
Enterococcus faecalis
  Inhibitory concentration MIC (MIC90): MIC = 6.3 μg/ml
Epidermophyton floccosum
  Inhibitory concentration MIC (MIC90): MIC = 0.31-2.5 μg/ml
Escherichia coli
  Inhibitory concentration MIC (MIC90): MIC = 6.3 μg/ml
Exophiala dermatitidis
  Inhibitory concentration MIC (MIC90): MIC = 2 μg/ml
Fusarium moniliforme
  Inhibitory concentration MIC (MIC90): MIC = 2.5-5 μg/ml
Fusarium oxysporum
  Inhibitory concentration MIC (MIC90): MIC = 8-16 μM
Fusarium solani
  Inhibitory concentration MIC (MIC90): MIC = 8-16 μM
Geotrichium spp
  Inhibitory concentration MIC (MIC90): MIC = 50 μg/mL
[2]
  Inhibitory concentration MIC (MIC90): MIC = 50 μg/mL
[3]
  Inhibitory concentration MIC (MIC90): MIC = 12.5-50 μg/mL
[4]
  Inhibitory concentration MIC (MIC90): MIC = 12.5-50 μg/mL
[5]
  Inhibitory concentration MIC (MIC90): MIC = 25-50 μg/mL
[6]
  Inhibitory concentration MIC (MIC90): MIC = 100 μg/ml
Malassezia furfur spp.
  Inhibitory concentration MIC (MIC90): MIC = 12.5-50 μg/mL
Malassezia globosa
  Inhibitory concentration MIC (MIC90): MIC = 12.5-50 μg/mL
[7]
  Inhibitory concentration MIC (MIC90): MIC = 50 μg/ml
Meyerozyma spp.
  Inhibitory concentration MIC (MIC90): MIC = 25-50 μg/mL
Nannizzia incurvata
  Inhibitory concentration MIC (MIC90): MIC = 18 μg/ml
Nannizzia otae
  Inhibitory concentration MIC (MIC90): MIC = 60 μg/ml
Penicillium digitatum
  Inhibitory concentration MIC (MIC90): MIC = 8 μM
[8]
  Inhibitory concentration MIC (MIC90): MIC = 45 μg/ml
Penicillium spp
  Inhibitory concentration MIC (MIC90): MIC = 12.5-50 μg/ml
[9]
  Inhibitory concentration MIC (MIC90): MIC = 0.63-50 μg/ml
[10]
  Inhibitory concentration MIC (MIC90): MIC = 25 μg/mL
Sporothrix schenckii
  Inhibitory concentration MIC (MIC90): MIC = 2-10 μg/ml
Sporotrichium spp
  Inhibitory concentration MIC (MIC90): MIC = 40 μg/ml
[11]
  Inhibitory concentration MIC (MIC90): MIC = 1.6 μg/ml
[12]
  Inhibitory concentration MIC (MIC90): MIC = 3.1 μg/ml
Streptococcus mutans
  Inhibitory concentration MIC (MIC90): MIC = 3.1 μg/ml
[13]
  Inhibitory concentration MIC (MIC90): MIC = 6.3 μg/ml
Torula spp
  Inhibitory concentration MIC (MIC90): MIC = 40 μg/ml
[14]
  Inhibitory concentration MIC (MIC90): MIC = 6.3-45 μg/ml
Trichophyton mucoides
  Inhibitory concentration MIC (MIC90): MIC = 12.5-50 μg/ml
Trichophyton spp
  Inhibitory concentration MIC (MIC90): MIC = 6.3-45 μg/ml
Trichosporon cutaneum
  Inhibitory concentration MIC (MIC90): MIC = 1.25-18 μg/ml
[15]
  Inhibitory concentration MIC (MIC90): MIC = 40 μg/ml
